Test results reported in patent US5700446A, “Synthesis of ferrocenyl phenyltropane analogs and their radio-transformation to technetium neuroprobes for mapping monoamine reuptake sites” (Neuro Imaging Technologies, LLC, priority 1996, dated 1997).

Tests used:
[1] = molecular target: T1, dopamine transporter (Rattus norvegicus, UniProt P23977); test: Radioreceptor binding assay, dopamine transporter ([3H]GBR-12935), rat brain corpus striatum membranes; details: for Ki: [3H]GBR-12935 0.4 nM, 45 min at 4° C., Tris buffer pH 7.4, rat corpus striatum, ±SEM, read-out: Dopamine Transporter (DAT) (Ki); for DAT/5-HTT Selectivity: ratio of Ki for the dopamine transporter to the Ki for the serotonin transporter
T1 construct: crude membrane fraction of homogenates of rat brain corpus striatum (for the dopamine transporter); from tissue; host or cells: rat brain corpus striatum, crude membrane fraction

[2] = molecular target: T2, serotonin transporter (Rattus norvegicus, UniProt P31652); test: Radioreceptor binding assay, serotonin transporter ([3H]paroxetine), rat frontoparietal cerebral cortex membranes; details: [3H]paroxetine 0.2 nM, 60 min at 20° C., Tris buffer pH 7.4, rat frontoparietal cortex; ±SEM; read-out: Serotonin Transporter (5-HTT) (Ki)
T2 construct: rat brain corpus striatum (for the dopamine transporter) or frontoparietal cerebral cortex (for the serotonin and norepinephrine transporters); from tissue; host or cells: rat frontoparietal cerebral cortex, crude membrane fraction
T2 sequence (P31652 whole entry): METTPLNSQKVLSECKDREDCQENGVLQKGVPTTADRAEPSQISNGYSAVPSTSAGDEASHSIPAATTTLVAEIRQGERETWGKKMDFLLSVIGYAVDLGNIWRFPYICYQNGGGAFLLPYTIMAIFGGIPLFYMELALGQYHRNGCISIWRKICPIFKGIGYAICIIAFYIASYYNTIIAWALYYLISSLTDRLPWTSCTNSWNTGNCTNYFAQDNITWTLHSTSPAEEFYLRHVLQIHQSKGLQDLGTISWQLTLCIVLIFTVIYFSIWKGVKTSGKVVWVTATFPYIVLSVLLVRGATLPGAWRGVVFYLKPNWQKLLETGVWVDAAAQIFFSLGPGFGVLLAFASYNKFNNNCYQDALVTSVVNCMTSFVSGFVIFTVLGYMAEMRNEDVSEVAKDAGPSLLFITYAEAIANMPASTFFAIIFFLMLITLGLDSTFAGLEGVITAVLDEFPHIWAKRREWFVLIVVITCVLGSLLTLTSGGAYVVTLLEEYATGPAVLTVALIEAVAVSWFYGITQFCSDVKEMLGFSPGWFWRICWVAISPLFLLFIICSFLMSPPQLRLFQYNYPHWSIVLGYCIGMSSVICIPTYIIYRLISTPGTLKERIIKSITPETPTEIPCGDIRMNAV

T1 sequence (P23977 whole entry): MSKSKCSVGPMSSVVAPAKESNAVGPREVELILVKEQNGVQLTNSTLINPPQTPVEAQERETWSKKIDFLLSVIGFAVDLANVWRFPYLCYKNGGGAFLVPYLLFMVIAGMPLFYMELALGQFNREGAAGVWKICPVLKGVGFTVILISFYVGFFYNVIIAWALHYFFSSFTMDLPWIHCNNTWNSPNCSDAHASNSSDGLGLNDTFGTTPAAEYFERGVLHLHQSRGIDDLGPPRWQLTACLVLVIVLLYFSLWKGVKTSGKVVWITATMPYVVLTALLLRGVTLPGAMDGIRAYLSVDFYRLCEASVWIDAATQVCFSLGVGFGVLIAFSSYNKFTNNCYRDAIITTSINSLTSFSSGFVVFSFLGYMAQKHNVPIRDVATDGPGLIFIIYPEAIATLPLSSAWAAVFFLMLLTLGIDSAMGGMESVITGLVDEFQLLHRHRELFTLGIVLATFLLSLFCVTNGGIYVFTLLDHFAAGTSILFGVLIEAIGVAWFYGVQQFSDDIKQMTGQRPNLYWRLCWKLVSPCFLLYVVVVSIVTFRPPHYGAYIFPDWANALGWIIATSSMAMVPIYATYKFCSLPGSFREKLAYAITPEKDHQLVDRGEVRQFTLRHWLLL

In the case of “3β-(4-Chlorophenyl)-2β-tricarbonylrheniumcyclopentadienylcarboxymethyl)tropane [RBI-219]”, the Ki [1] is reported as 4.41 ± 0.76 nM, the “DAT/5-HTT Selectivity” value [1] is reported as 0.37 and the Ki [2] is reported as 11.9 ± 1.7 nM.

“3β-(4-iodophenyl)-2β-(tricarbonylrheniumcyclopentadienylcarboxymethyl)tropane [RBI-211]” was tested, and the Ki [1] was 7.22 ± 1.06 nM, the “DAT/5-HTT Selectivity” value [1] was 0.21 and the Ki [2] was 34.6 ± 3.4 nM.

For “N-(tricarbonylmanganesecyclopentadienylbutan-1-one-4-yl)-2β-carbomethoxy-3β-(4-chlorophenyl)nortropane [RBI-233]”, the Ki [1] was 1.67 ± 0.39 nM, the “DAT/5-HTT Selectivity” value [1] was 2 and the Ki [2] was 0.84 ± 0.06 nM.

In the case of “N-(tricarbonylrheniumcyclopentadienylbutan-1-one-4-yl)-2β-carbomethoxy-3β-(4-chlorophenyl)nortropane [RBI-235]”, the Ki [1] is reported as 1.29 ± 0.1 nM, the “DAT/5-HTT Selectivity” value [1] is reported as 3.49 and the Ki [2] is reported as 0.37 ± 0.04 nM.

“N-(tricarbonylrheniumcyclopentadienylcarboxypropyl)-2β-carbomethoxy-3β-(4-chlorophenyl)nortropane [RBI-232]” was tested, and the Ki [1] was 2.66 ± 0.33 nM, the “DAT/5-HTT Selectivity” value [1] was 4.75 and the Ki [2] was 0.56 ± 0.08 nM.
